From publication PMC11684029, “Discovery of VU6024578/BI02982816: An mGlu1 Positive Allosteric Modulator with Efficacy in Preclinical Antipsychotic and Cognition Models” (Journal of Medicinal Chemistry, 2024)

How the values were obtained:
Sprague–Dawley rats = test: amphetamine-induced hyperlocomotion (rat); type: in vivo
Method: Here, administration of 0.75 mg/kg IP of amphetamine induced a robust hyperlocomotive state in rats (>1200 beam breaks), which was dose-dependently reversed by oral administration of 19d. […] Considering the longer time point for exposure and the results, mGlu1 has sufficient target coverage and PK/PD is established for this paradigm.[24]
Figure 7 Rat amphetamine-induced hyperlocomotion and reversal by VU6024578 (19d). Amphetamine (0.75 mg/kg IP) induced robust hyperlocomotion, which was dose-dependently reversed by oral administration (10% tween 80) of 19d. TEXT PRINTED IN THE PICTURE: VU6024578: Mean % reversal: -0.2 ± 13.0 (1 mg/kg p.o. + Amphetamine 0.75 mg/kg s.c.); Mean % reversal: 31.6 ± 10.2 (3 mg/kg p.o. + Amphetamine 0.75 mg/kg s.c.); Mean % reversal: 31.4 ± 4.3 (5.6 mg/kg p.o. + Amphetamine 0.75 mg/kg s.c.); Mean % reversal: 41.8 ± 7.1 (10 mg/kg p.o. + Amphetamine 0.75 mg/kg s.c.)
Adult male Sprague–Dawley rats placed into the activity chambers (Med Associates). Thirty minutes after placement in the chambers, the rats were administered VU6024578 (1–10 mg/kg p.o.) or vehicle. Sixty minutes later the rats were injected with amphetamine (0.75 mg/kg s.c. One ml/kg) or vehicle (saline) and placed back in the activity chambers for 90 min. The data for the studies were analyzed by a between-group 2 way analysis of variance for compound dose and time. Each dose group was compared with the vehicle control group. The calculations were performed and graphed using GraphPad Prism (version 4.03, GraphPad, La Jolla, CA). The AUC was analyzed by a 1-way ANOVA with a Dunnett’s post hoc test.

[1] = rat IV/PO PK crossover study; type: in vivo
Text: Thus, 19d was a stable chemical entity in vivo. […] Overall, the rat PK and CNS penetration was supportive of in vivo work and progression down the development flow-chart.

[2] = plasma exposure in satellite mice; type: in vivo; conditions: male, C57BL/6JRj, mouse, sc
Text: We have also employed here event-related potentials (ERPs) and auditory-evoked oscillations, which serve as critical translational biomarkers, to assess the impact of our investigational drug on sensory processing and cognitive functions, providing valuable data on its potential efficacy in treating disorders like schizophrenia. Detailed description of the methodology, setup specifications and recording procedure and analysis of the 40 Hz auditory steady-state response (ASSR) protocol can be found in Schuelert et al.[27] […] Reduced entrainment of gamma oscillation reflects abnormalities in basic sensory registration and processing but is also associated with impaired higher cognitive functions.[32] ASSR can also be reliably impaired preclinically by different NMDA receptor antagonists.[33],[34] […] Abnormalities associated with the filtering or “gating” of sensory information are among the most consistent findings in schizophrenia research.[35] N100 gating deficits also correlated with negative-cognitive deficits dimensions of schizophrenia[36] and can be modeled preclinically with NMDA receptor antagonists.[37]19d reversed N1 sensory gating deficit induced by MK-801 with the highest dose of 10 mg/kg (Figure 12B). Mean plasma exposures in satellite mice after subcutaneous administration of 19d at 0.8, 4, and 10 mg/kg were 187, 1207, and 2490 nM, respectively.
Male C57BL/6JRj mice (12–14 weeks old, 28–30 g, n = 13–19 per treatment arm) (Janvier Laboratories, Le Genest-Saint-Isle, France) were group housed prior to surgery (four animals per cage) and single housed after surgery under standard light-dark conditions (12 h/12 h, lights on 06:00–18:00) with food and tap water available ad libitum. C57BL/6JRj mice were used as they are well suited for neurophysiological cortical network investigations using EEG techniques (Schuelert et al., 2018). […]

[3] = predicted hepatic clearance; type: in vitro ADME, cyno
Text: Across species, 19d had acceptable fraction unbound in both plasma (fu (plasma): 0.03 (human), 0.041 (rat), 0.025 (cyno), 0.039 (dog) and 0.056 (mouse)) and brain (fu (brain): 0.034 (rat) and 0.081 (mouse)).

SMILES: Cn1nc(-c2ccnn2C)cc1CNC(=O)c1cc(-c2ccco2)ccc1Cl [Compound 19d, 2-Chloro-N-((1,2′-dimethyl-1H,2’H-[3,3′-bipyrazol]-5-yl)methyl)-5-(furan-2-yl)benzamide]
- Mean % reversal of AHL (Sprague–Dawley rats; 1 mg/kg p.o.): -0.2 ± 13.0%
- Mean % reversal of AHL (Sprague–Dawley rats; 3 mg/kg p.o.): 31.6 ± 10.2%
- Mean % reversal of AHL (Sprague–Dawley rats; 5.6 mg/kg p.o.): 31.4 ± 4.3%
- Mean % reversal of AHL (Sprague–Dawley rats; 10 mg/kg p.o.): 41.8 ± 7.1%
- minimum effective dose (MED), AHL (Sprague–Dawley rats; p.o.): 3 mg/kg
- Vss ([1]; 1 mg/kg IV): 1.78 L/kg
- plasma clearance (CLp) ([1]; 1 mg/kg IV): 0.498 L/h/kg
- t1/2 ([1]; 1 mg/kg IV): 3.9 h
- oral bioavailability (%F) ([1]; PO 10% tween 80): 100%
- Cmax ([1]; PO arm): 4.15 µg/mL
- Tmax ([1]; PO arm): 2 h
- AUC ([1]; plasma, PO arm): 24.6 µg·h/mL
- concentration at 60 min ([2]; 0.8 mg/kg s.c.): 0.187 µM
- concentration at 60 min ([2]; 4 mg/kg s.c.): 1.21 µM
- concentration at 60 min ([2]; 10 mg/kg s.c.): 2.49 µM
- CLhep, cyno [3]: 1.86 L/h/kg
